Source: paper PMC9828224, “Expansion of the Catalytic Repertoire of Alcohol Dehydrogenases in Plant Metabolism” (Angewandte Chemie (International Ed. in English), 2022)

Experiments:
[1] = target: T1, GS (Catharanthus roseus, UniProt W8JWW7); assay: X-ray crystal structure of complex, […] Å; type: binding; conditions: active site; catalytic and structural zinc bound
T1 construct: construct details only in supplement

[2] = target: T2, CrDPAS (Catharanthus roseus, UniProt A0A1B1FHP3); assay: enzymatic turnover, products by MS and NMR with deuterated cofactor; type: biochemical; conditions: NADPH or 4-pro-R-NADPD; 1,4-iminium reduction
T2 construct: gene DPAS; construct details only in supplement; text prints PDB 8B26 for both CrDPAS and apo TiDPAS2
T2 sequence (A0A1B1FHP3 1-365): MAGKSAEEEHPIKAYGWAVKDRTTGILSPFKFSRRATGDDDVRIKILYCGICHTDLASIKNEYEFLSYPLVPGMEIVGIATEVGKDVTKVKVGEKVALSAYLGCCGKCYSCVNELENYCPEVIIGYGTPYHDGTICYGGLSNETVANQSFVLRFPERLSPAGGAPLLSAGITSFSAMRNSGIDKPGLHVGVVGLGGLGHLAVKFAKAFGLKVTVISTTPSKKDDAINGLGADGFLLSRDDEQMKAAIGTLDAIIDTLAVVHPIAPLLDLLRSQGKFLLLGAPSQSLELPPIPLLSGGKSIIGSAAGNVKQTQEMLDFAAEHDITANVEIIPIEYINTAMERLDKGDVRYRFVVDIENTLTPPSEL

T1 sequence (W8JWW7 2-364): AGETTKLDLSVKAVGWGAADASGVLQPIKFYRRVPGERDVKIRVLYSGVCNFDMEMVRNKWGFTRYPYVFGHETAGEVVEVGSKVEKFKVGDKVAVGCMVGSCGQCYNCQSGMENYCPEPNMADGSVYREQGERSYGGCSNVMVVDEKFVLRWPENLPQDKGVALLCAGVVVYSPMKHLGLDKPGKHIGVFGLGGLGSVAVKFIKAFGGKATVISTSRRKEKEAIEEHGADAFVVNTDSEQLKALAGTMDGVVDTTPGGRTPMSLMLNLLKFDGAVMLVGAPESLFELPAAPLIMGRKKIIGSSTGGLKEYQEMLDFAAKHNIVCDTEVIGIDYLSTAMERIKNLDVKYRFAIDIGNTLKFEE

Question: With `NC(=O)c1ccc[n+]([C@@H]2O[C@H](COP(=O)(O)OP(=O)(O)OC[C@H]3O[C@@H](n4cnc5c(N)ncnc54)[C@H](OP(=O)(O)O)[C@@H]3O)[C@@H](O)[C@H]2O)c1` [NADP+] as the molecule, how does the “X-ray crystal structure of complex, 2.00 Å” value [1] read?
Answer: Its value is “Active site of GS co‐crystallised with NADP^+”.

Question: `C/C=C1/C=[N+]2CCc3c([nH]c4ccccc34)[C@@](COC(C)=O)(C(=O)OC)[C@H]1CC2` [precondylocarpine acetate] was tested. Which “enzymatic turnover, products by MS and NMR with deuterated cofactor” value [2] did it give?
Answer: Its value is “we observed product formation when only DPAS and NADPH is incubated with precondylocarpine acetate”.
